From PMC10906223 (JCI Insight, 2024)
Several values for one entry are separate records, joined by “and”; a condition that tells them apart may be missing. Identical values can stand only once.

Legend:
[1] = Microsomal stability assay, CD-1 mouse liver microsomes; assay type: in vitro ADME; settings: for Remaining in hepatic microsomes (100 at 0 min): mouse microsomes, Figure 5D
Method: A total of 445 μL of the working solution was transferred into prewarmed incubation plates for treated (T60) and control (NCF60) measurements. After preincubation (10 minutes at 37°C with constant shaking), 54 μL was transferred to the blank plate, followed by 6 μL of NADPH and 180 μL quenching solution. In parallel, 5 μL of WCDD301 (100 μM) was added into incubation plates (T60 and NCF60) containing microsomes and mixed thoroughly (3 times). For the NCF60 plate, 50 μL of buffer was added, mixed (thoroughly, 3 times), shaken, and incubated at 37°C for 60 minutes. In the quenching plate T0, quenching solution (180 μL) and NADPH cofactor (6 μL) were added. For T60 plate, 54 μL of the mixture was placed into the quenching plate (for T0 point), followed by adding 44 μL NADPH cofactor with shaking incubation at 37°C for 60 minutes. Quenching solution (180 μL) was added to quenching plates at 5, 15, 30, 45, and 60 minutes, and 60 μL of sample was transferred from T60 plate per time point to the quenching plates. For the NCF60 plates, 60 μL sample from the NCF60 incubation plate was transferred to the quenching plate (containing quenching solution) at the 60-minute time point. After plates were shaken for 10 minutes and centrifuged (1,750g, 20 minutes at 4°C), 80 μL of the supernatant was transferred into 240 μL HPLC water for LC-MS/MS analysis. The following first-order kinetic equation was used to calculate half-life (T1/2): [drawing 3]; when
Then, intrinsic clearance [CLint (microsomal; mic)] and hepatic clearance [CLint (liver)] were predicted using the following equations ([66]): […]

[2] = tested on: diabetic NOD mice; assay: Plasma somatostatin in NOD mice; assay type: in vivo, mouse; parameters: unit not given beside the values; settings: WCDD301 group of NOD mice; quantity not given
Method: (§1) Terminal blood was collected into microfuge tubes containing K2-EDTA (supplemented by 45 mM phenylmethylsulphonyl fluoride and 0.77 μM aprotinin) through cardiac puncture. Plasma was separated by centrifugation (2,000g for 10 minutes at 4°C) and kept at –80°C until analysis. Plasma samples with hemolysis were excluded from the study. […] Values of BUN, creatinine, ALB, ALT, and AST were determined by a Roche Cobas C501 Autoanalyzer as performed by the Washington University Diabetes Research Center Translational Diagnostics Core. Reference intervals of blood chemistry parameters for inbred NOD mice were extracted from the Mouse Phenome Database (https://phenome.jax.org/).

[3] = tested on: diabetic NOD mice; assay: Plasma insulin in NOD mice after treatment; assay type: in vivo, mouse; settings: WCDD301-treated diabetic NOD mice; Figure 6C
Method: as §1

[4] = tested on: NOD mice; assay: Blood chemistry parameters in WCDD301-treated NOD mice; assay type: in vivo, mouse
Method: as §1

[5] = tested on: diabetic NOD mice; assay: Daily body weight in NOD mice; assay type: in vivo, mouse; settings: for Daily body weight (Figure 7F): Diabetic, WCDD301 treated, in g (unit assumed)
Method: We preweighed WCDD301 into microfuge tubes and reconstituted it using deionized water. Using a 10 μL pipette tip, we placed the calculated dose of WCDD301 (at the volume range of 1–1.5 μL) within the center of pearls. WCDD301 was placed into pearls 30–45 minutes before administration. For oral administration of pearls, we designed an applicator using a disposable plastic transfer pipette and syringe plunger lubricated with olive oil. Food intake and body weight in each experimental group (diabetic WCDD301-treated, diabetic placebo-treated, and nondiabetic placebo-treated NOD mice) were monitored daily for 4 weeks. Urine glucose was measured from individually caged NOD mice (nondiabetic placebo treated n = 2, diabetic placebo treated n = 2, and diabetic WCDD301 treated n = 4, 21–23 weeks old) with metabolic cages. Urine glucose was monitored every 24 hours for 10 days by semiquantitative measurements (P-STICKS, Millpledge Veterinary).

[6] = Pharmacokinetics in CD-1 mice, subcutaneous or intravenous; assay type: in vivo, mouse; settings: for Plasma concentration (Supplemental Figure 5A) / Plasma concentration (Supplemental Figure 5B): individual mice M1-M3, route not given
Method: CD-1 mice were injected with WCDD301 subcutaneously (1 mg/kg, n = 3) or intravenously (1 mg/kg, n = 3), and blood was collected from saphenous vein directly into K2-EDTA–containing microcentrifuge tubes at 5, 10, and 15 minutes postdosing. An aliquot of 20 μL plasma was deproteinized using 200 μL of internal standard solution (100 ng/mL of labetalol and tolbutamide in acetonitrile), incubated for 10 minutes at RT, and centrifuged at 1,800g for 10 minutes at 4°C. Following 1:1 dilution of the supernatant with deionized water, 1 μL of the diluted sample was used for LC-MS/MS analysis (TripleQuad 6500, column: ACQUITY UPLC BEH C18 2.1 × 50 mm, 1.7 μm; flow rate: 0.6 mL/min, retention time: 1.60/1.78 WCDD301/labetalol).

## CC(=O)OCC(N)(COC(C)=O)COC(C)=O [WCDD301, 2-(acetoxymethyl)-2-aminopropane-1,3-diyl diacetate]
[1]; CD-1, mouse, liver microsomes
  half-life at 1 µM: 1.56 h
[1]; CD-1, mouse, liver microsomes, read-out: Intrinsic microsomal clearance
  microsomal CLint at 1 µM: 14.8 µL/min/mg
[1]; 5 min
  Remaining in hepatic microsomes (100 at 0 min): 95.6
[1]; 15 min
  Remaining in hepatic microsomes (100 at 0 min): 86.5
[1]; 30 min
  Remaining in hepatic microsomes (100 at 0 min): 79.8
[1]; 45 min
  Remaining in hepatic microsomes (100 at 0 min): 69.6
[1]; 60 min
  Remaining in hepatic microsomes (100 at 0 min): 64.2
[1]; mouse, predicted from microsomal data
  Hepatic clearance: 58.7 mL/min/kg
[2]
  Plasma somatostatin (Figure 7C): 310.49 and 318.85 and 327.2 and 342.5
[3]
  Plasma insulin: Undetectable
[4]; WCDD301-treated animals
  Blood chemistry markers (BUN, creatinine, ALB, ALT, AST): remained in the normal range
[4]; non-diabetic NOD mice, 19-week-old, treated with WCDD301, mean ± SEM, n=5, reference interval 0.2-0.5
  Creatinine (CREAT): 0.2 ± 0.1 mg/dL
[4]; non-diabetic NOD mice, 19-week-old, treated with WCDD301, mean ± SEM, n=5, reference interval 1.72-3.54
  Albumin (ALB): 3 ± 0.1 g/dL
[4]; non-diabetic NOD mice, 19-week-old, treated with WCDD301, mean ± SEM, n=5, reference interval 5-394
  Alanine aminotransferase (ALT): 20.5±9.5 IU/L
[4]; non-diabetic NOD mice, 19-week-old, treated with WCDD301, mean ± SEM, n=5, reference interval 10-79
  Blood urea nitrogen (BUN): 21 ± 2.3 mg/dL
[4]; non-diabetic NOD mice, 19-week-old, treated with WCDD301, mean ± SEM, n=5, reference interval 18-586
  Aspartate aminotransferase (AST): 99.5±57.5 IU/L
[5]; Day 1
  Daily body weight (Figure 7F): 22.8 and 23.7 and 24.1 and 24.7
[5]; Day 2
  Daily body weight (Figure 7F): 23 and 23.9 and 24.3 and 25.3
[5]; Day 3
  Daily body weight (Figure 7F): 22.6 and 23.4 and 23.9 and 25.3
[5]; Day 7
  Daily body weight (Figure 7F): 22.3 and 23.1 and 23.5 and 24.7
[5]; Day 8
  Daily body weight (Figure 7F): 22.3 and 23.1 and 23.5 and 24.8
[5]; Day 9
  Daily body weight (Figure 7F): 22.6 and 23.4 and 23.9 and 24.8
[5]; Day 10
  Daily body weight (Figure 7F): 22.3 and 23.1 and 23.5 and 24.6
[5]; Day 11
  Daily body weight (Figure 7F): 22.3 and 23.1 and 23.5 and 25.1
[5]; Day 12
  Daily body weight (Figure 7F): 22.4 and 23.2 and 23.7 and 25.4
[5]; Day 13
  Daily body weight (Figure 7F): 22.5 and 23.3 and 23.8 and 25.3
[5]; Day 14
  Daily body weight (Figure 7F): 22.6 and 23.4 and 23.9 and 25.2
[5]; Day 15
  Daily body weight (Figure 7F): 22.9 and 23.8 and 24.2 and 24.7
[5]; Day 16
  Daily body weight (Figure 7F): 23.1 and 24 and 24.4 and 25.6
[5]; Day 17
  Daily body weight (Figure 7F): 23 and 23.9 and 24.3 and 25.3
[5]; Day 18
  Daily body weight (Figure 7F): 22.8 and 23.7 and 24.1 and 25.2
[5]; Day 19
  Daily body weight (Figure 7F): 22.4 and 23.2 and 23.7 and 25.1
[5]; Day 20
  Daily body weight (Figure 7F): 22.6 and 23.4 and 23.9 and 25.7
[5]; Day 21
  Daily body weight (Figure 7F): 22.5 and 23.3 and 23.8 and 25.1
[5]; Day 22
  Daily body weight (Figure 7F): 22.6 and 23.4 and 23.9 and 25.1
[5]; Day 23
  Daily body weight (Figure 7F): 22.4 and 23.2 and 23.7 and 25.1
[5]; Day 24
  Daily body weight (Figure 7F): 22.5 and 23.3 and 23.8 and 25.1
[5]; Day 25
  Daily body weight (Figure 7F): 22.5 and 23.3 and 23.8 and 25.2
[5]; Day 26
  Daily body weight (Figure 7F): 22.3 and 23.1 and 23.5 and 25.4
[5]; Day 27
  Daily body weight (Figure 7F): 22.3 and 23.1 and 23.5 and 25.2
[5]; Day 28
  Daily body weight (Figure 7F): 22.8 and 23.7 and 24.1 and 25.4
[5]; diabetic WCDD301-treated mice
  Body weight, daily monitoring: phenotypes similar to nondiabetic placebo-treated mice
[6]; 5 min
  Plasma concentration (Supplemental Figure 5A): 64.8 and 47.6 and 146
  Plasma concentration (Supplemental Figure 5B): 57.9 and 180 and 135
[6]; 10 min
  Plasma concentration (Supplemental Figure 5A): 44.3 and 27.1 and 52.9
  Plasma concentration (Supplemental Figure 5B): 11 and 18.9 and 12.4
[6]; 15 min
  Plasma concentration (Supplemental Figure 5A): 31.3 and 22.7 and 21.7
  Plasma concentration (Supplemental Figure 5B): 0 and 6.64 and 3.56
[6]; CD-1 mice, 1 mg/kg, 15 minutes
  Plasma concentration, subcutaneous compared with intravenous: increased plasma concentrations of WCDD301 at 15 minutes following subcutaneous injection
